From article PMC8552062, “Contributions of UDP-Glucuronosyltransferases to Human Hepatic and Intestinal Metabolism of Ticagrelor and Inhibition of UGTs and Cytochrome P450 Enzymes by Ticagrelor and its Glucuronidated Metabolite” (Frontiers in Pharmacology, 2021)

Assays:
Format in all cases: in vitro ADME
[1] = molecular target: T1, CYP2C19 (Homo sapiens, UniProt P33261); assay: CYP2C19 inhibition in HLM ([S]-mephenytoin 4′-hydroxylase)
T1 construct: co-incubation ticagrelor-O-Glu with selective P450 probe substrates in HLM; tissue XenoTech LLC; host or cells: pooled human liver microsomes
T1 sequence (P33261 whole entry): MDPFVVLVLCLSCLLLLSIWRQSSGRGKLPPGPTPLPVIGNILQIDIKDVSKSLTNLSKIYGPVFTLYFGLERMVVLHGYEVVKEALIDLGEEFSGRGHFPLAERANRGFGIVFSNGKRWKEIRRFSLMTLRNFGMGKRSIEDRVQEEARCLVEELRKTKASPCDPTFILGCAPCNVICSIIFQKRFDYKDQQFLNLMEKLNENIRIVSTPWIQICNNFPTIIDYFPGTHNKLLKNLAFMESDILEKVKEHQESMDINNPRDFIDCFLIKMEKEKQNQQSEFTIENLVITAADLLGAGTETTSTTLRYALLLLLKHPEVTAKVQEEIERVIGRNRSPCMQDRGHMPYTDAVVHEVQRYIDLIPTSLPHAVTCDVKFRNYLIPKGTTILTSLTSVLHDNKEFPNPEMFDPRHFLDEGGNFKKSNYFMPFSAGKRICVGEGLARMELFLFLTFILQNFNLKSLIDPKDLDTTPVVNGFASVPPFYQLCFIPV
Protocol: The potential inhibitory effects of ticagrelor-O-Glu on the activities of major CYPs, i.e., CYP2B6, CYP2C8, CYP2C9, CYP2C19, CYP2D6, and CYP3A4, were evaluated by co-incubation ticagrelor-O-Glu with selective P450 probe substrates in HLM. Each incubation mixture containing 0.2 mg/ml HLM, ticagrelor-O-Glu and respective substrate (the final substrate concentrations are close to or less than the Km values: 150 μM bupropion, 1.26 μM amodiaquine, 10 μM diclofenac, 20 μM mephenytoin, 20 μM dextromethorphan and 80 μM testosterone (in house data)) in potassium phosphate buffer (100 mM, pH 7.4) was pre-incubated at 37°C for 5 min. Then, NADPH (10 mM) was added to initiate the reaction. The final volume of the incubation mixture was 100 μl. After incubation at 37°C for specific time points, the reaction was terminated by the addition of 200 μl of ice-cold methanol solution with internal standards (diazepam and furafylline). Preliminary screening experiments with selected concentrations of ticagrelor-O-Glu (0, 1, 10, or 100 μM of the final concentration) were carried out to determine the inhibition potency. For those that produced approximately 50% inhibition of CYPs enzyme activities at a ticagrelor-O-Glu concentration between 1 and 100 μM, IC50 was further determined with various concentrations of ticagrelor-O-Glu (0, 1, 5, 10, 20, 50, and 100 μM). All the experiments were performed in triplicates. The supernatant was obtained after centrifugation at 14,000 rpm for 10 min and injected into LC-MS/MS for the analysis of the respective metabolites. The formation of respective metabolites was determined to reflect P450 isoform activities. The metabolites quantified for CYP2B6, CYP2C8, CYP2C9, CYP2C19, CYP2D6, and CYP3A4 were hydroxy bupropion, N-Desethyl amodiaquine, 4′-hydroxylation diclofenac, S-4-hydroxy mephenytoin, dextrorphan and 6β-hydroxy testosterone, respectively.
The percent inhibition relative to the control was calculated to indicate the UGTs or CYPs inhibition. […]

[2] = molecular target: T2, UGT1A9 (Homo sapiens, UniProt O60656); assay: UGT1A9 inhibition in HLM (mycophenolic acid glucuronidation); design: tissue XenoTech LLC; host or cells: pooled human liver microsomes; conditions: for IC50: UGT1A9, mycophenolic acid glucuronide formation in HLM; for inhibition at 100 µM: human, human liver microsomes (HLM), probe mycophenolic acid, HLM, 100 μM test compound
T2 sequence (O60656 26-530): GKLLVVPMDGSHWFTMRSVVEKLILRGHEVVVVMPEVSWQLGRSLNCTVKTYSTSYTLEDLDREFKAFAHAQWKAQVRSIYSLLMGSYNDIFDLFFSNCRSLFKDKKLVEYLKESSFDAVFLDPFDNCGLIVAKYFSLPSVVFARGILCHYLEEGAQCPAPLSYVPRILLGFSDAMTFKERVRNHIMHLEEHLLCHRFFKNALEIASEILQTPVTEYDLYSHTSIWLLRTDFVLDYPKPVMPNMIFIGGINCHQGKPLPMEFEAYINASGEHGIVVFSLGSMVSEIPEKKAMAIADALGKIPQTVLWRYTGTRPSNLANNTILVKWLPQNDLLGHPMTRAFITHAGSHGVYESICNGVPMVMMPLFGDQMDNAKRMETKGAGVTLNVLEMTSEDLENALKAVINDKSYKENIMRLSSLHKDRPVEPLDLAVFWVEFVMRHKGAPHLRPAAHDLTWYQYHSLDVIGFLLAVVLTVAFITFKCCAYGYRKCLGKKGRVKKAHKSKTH
Protocol: (§1) To assess drug-drug interactions (DDIs) potential caused by ticagrelor and ticagrelor-O-Glu through the inhibition of the major human UGTs enzymes, selective UGT probe substrates were co-incubated with ticagrelor or ticagrelor-O-Glu in HLM. The formation of metabolites, SN-38 glucuronide, chenodeoxycholic acid 24-acyl-β-D-glucuronide, trifluoperazine N-glucuronide, N-Acetyl serotonin glucuronide, mycophenolic acid glucuronide and 3′-azide-3′-deoxythymidine β-D-glucuronide, which could reflect the enzyme activities of UGT1A1, UGT1A3, UGT1A4, UGT1A6, UGT1A9 and UGT2B7, respectively, were quantified using LC-MS/MS. Three different concentrations of ticagrelor or ticagrelor-O-Glu (1, 10 and 100 μM) were added to the incubation system in the presence of selective UGT probe substrates (SN-38, chenodeoxycholic acid, trifluoperazine, N-Acetyl serotonin, mycophenolic acid and 3′-azide-3′-deoxythymidine), respectively. The assays were performed as described above. The control was treated with a vehicle solvent only. A triple determination was performed.
(§2) The percent inhibition relative to the control was calculated to indicate the UGTs or CYPs inhibition. For inhibition exceeding 50% of the control activity, nonlinear regression analysis was used to estimate the IC50 values using the GraphPad Prism 6 (GraphPad Software Inc., CA, United States).

[3] = molecular target: T3, UGT1A4 (Homo sapiens, UniProt P22310); assay: UGT1A4 inhibition in HLM (trifluoperazine N-glucuronidation); design: tissue XenoTech LLC; host or cells: pooled human liver microsomes; conditions: for inhibitory effect on UGT1A4: HLM, 1, 10 and 100 μM; for IC50: UGT1A4, trifluoperazine N-glucuronide formation in HLM
T3 sequence (P22310 29-534): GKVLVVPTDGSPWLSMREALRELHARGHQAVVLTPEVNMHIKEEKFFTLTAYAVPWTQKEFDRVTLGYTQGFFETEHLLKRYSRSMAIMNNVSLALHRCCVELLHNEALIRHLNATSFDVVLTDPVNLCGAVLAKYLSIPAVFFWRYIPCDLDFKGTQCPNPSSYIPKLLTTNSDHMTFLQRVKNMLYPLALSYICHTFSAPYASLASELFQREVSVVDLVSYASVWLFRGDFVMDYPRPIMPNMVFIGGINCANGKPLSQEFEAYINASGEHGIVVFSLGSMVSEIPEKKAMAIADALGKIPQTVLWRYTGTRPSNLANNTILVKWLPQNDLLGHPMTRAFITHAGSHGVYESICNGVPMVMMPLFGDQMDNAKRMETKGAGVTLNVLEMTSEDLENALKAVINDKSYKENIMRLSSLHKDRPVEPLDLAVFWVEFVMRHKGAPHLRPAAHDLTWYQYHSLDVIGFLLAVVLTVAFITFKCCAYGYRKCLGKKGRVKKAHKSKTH
Protocol: as §1, §2

IC50 ([1]; CYP2C19, [S]-mephenytoin 4′-hydroxylase, HLM 0.2 mg/ml)	inhibition at 10 μM ([1]; human, human liver microsomes, pH 7.4, probe mephenytoin (20 μM), S-4-hydroxy mephenytoin formation, HLM, 10 μM ticagrelor-O-Glu, read-out: inhibition of CYP2C19 enzyme activity)	inhibition at 100 µM ([1]; human, human liver microsomes, pH 7.4, probe mephenytoin (20 μM), S-4-hydroxy mephenytoin formation, HLM, 100 μM ticagrelor-O-Glu, read-out: inhibition of CYP2C19 enzyme activity)	IC50 [2]	inhibition at 100 µM [2]	inhibitory effect on UGT1A4 [3]	IC50 [3]	SMILES
18.8 µM	32.7%	83.6%	~100 µM	61.4%	no significant inhibitory effects	> 100 µM	CCCSc1nc(N[C@@H]2C[C@H]2c2ccc(F)c(F)c2)c2nnn([C@@H]3C[C@H](OCCO[C@@H]4O[C@H](C(=O)O)[C@@H](O)[C@H](O)[C@H]4O)[C@@H](O)[C@H]3O)c2n1 [Ticagrelor-O-Glu, ticagrelor-O-glucuronide]
–	–	–	> 100 µM	13.3%	No significant inhibitory effect	> 100 µM	CCCSc1nc(N[C@@H]2C[C@H]2c2ccc(F)c(F)c2)c2nnn([C@@H]3C[C@H](OCCO)[C@@H](O)[C@H]3O)c2n1 [Ticagrelor]
